From PubChem BioAssay (NCI)
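Cells were grown in 96-well plates and exposed to each compound for 48 hours at five concentrations; endpoints were interpolated linearly between bracketing concentrations, or set to the highest concentration if not reached. At the TGI there is no net growth.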

Columns and labels:
Test in all cases: inhibition of tumour cell growth, NCI panel, 48 h
CAKI-1 renal = tested on: CAKI-1 renal
HCT-15 colon = tested on: HCT-15 colon
MOLT-4 leukemia = tested on: MOLT-4 leukemia
SN12C renal = tested on: SN12C renal
HCC-2998 colon = tested on: HCC-2998 colon
T-47D breast = tested on: T-47D breast
MDA-MB-231 breast = tested on: MDA-MB-231 breast
SK-MEL-2 melanoma = tested on: SK-MEL-2 melanoma
EKVX NSCLC = tested on: EKVX NSCLC
SNB-19 CNS = tested on: SNB-19 CNS
RPMI-8226 leukemia = tested on: RPMI-8226 leukemia
HT29 colon = tested on: HT29 colon
CCRF-CEM leukemia = tested on: CCRF-CEM leukemia
OVCAR-3 ovarian = tested on: OVCAR-3 ovarian
786-0 renal = tested on: 786-0 renal
ACHN renal = tested on: ACHN renal
DU-145 prostate = tested on: DU-145 prostate
LOX IMVI melanoma = tested on: LOX IMVI melanoma
SF-539 CNS = tested on: SF-539 CNS
SF-295 CNS = tested on: SF-295 CNS
HL-60(TB) leukemia = tested on: HL-60(TB) leukemia
NCI-H23 lung = tested on: NCI-H23 lung
SF-268 CNS = tested on: SF-268 CNS
SNB-75 CNS = tested on: SNB-75 CNS
HOP-62 NSCLC = tested on: HOP-62 NSCLC
RXF 393 renal = tested on: RXF 393 renal
PC-3 prostate = tested on: PC-3 prostate
OVCAR-8 ovarian = tested on: OVCAR-8 ovarian
HOP-92 NSCLC = tested on: HOP-92 NSCLC
OVCAR-4 ovarian = tested on: OVCAR-4 ovarian
TK-10 renal = tested on: TK-10 renal
A549 NSCLC = tested on: A549 NSCLC
SW-620 colon = tested on: SW-620 colon
M14 melanoma = tested on: M14 melanoma
UACC-62 melanoma = tested on: UACC-62 melanoma
MDA-N = tested on: MDA-N
UACC-257 melanoma = tested on: UACC-257 melanoma
HCT-116 colon = tested on: HCT-116 colon
SK-MEL-28 melanoma = tested on: SK-MEL-28 melanoma
MCF7 breast = tested on: MCF7 breast
SK-OV-3 ovarian = tested on: SK-OV-3 ovarian
NCI-H460 lung = tested on: NCI-H460 lung
MALME-3M melanoma = tested on: MALME-3M melanoma
COLO 205 colon = tested on: COLO 205 colon
SR leukemia = tested on: SR leukemia
UO-31 renal = tested on: UO-31 renal
OVCAR-5 ovarian = tested on: OVCAR-5 ovarian
NCI/ADR-RES ovarian = tested on: NCI/ADR-RES ovarian
SK-MEL-5 melanoma = tested on: SK-MEL-5 melanoma
MDA-MB-435 = tested on: MDA-MB-435
IGROV1 ovarian = tested on: IGROV1 ovarian
KM12 colon = tested on: KM12 colon
A498 renal = tested on: A498 renal
BT-549 breast = tested on: BT-549 breast
U251 CNS = tested on: U251 CNS
K-562 leukemia = tested on: K-562 leukemia
HS 578T breast = tested on: HS 578T breast

Cc1noc(C)c1N=Nc1ccc2nonc2c1N
TGI (CAKI-1 renal): > 100 µM
TGI (HCT-15 colon): > 100 µM
TGI (MOLT-4 leukemia): > 100 µM
TGI (SN12C renal): > 100 µM
TGI (HCC-2998 colon): > 100 µM
TGI (T-47D breast): > 100 µM
TGI (MDA-MB-231 breast): > 100 µM
TGI (SK-MEL-2 melanoma): > 100 µM
TGI (EKVX NSCLC): 9.77 µM
TGI (SNB-19 CNS): > 100 µM
TGI (RPMI-8226 leukemia): > 100 µM
TGI (HT29 colon): > 100 µM
TGI (CCRF-CEM leukemia): > 100 µM
TGI (OVCAR-3 ovarian): > 100 µM
TGI (786-0 renal): > 100 µM
TGI (ACHN renal): > 100 µM
TGI (DU-145 prostate): > 100 µM
TGI (LOX IMVI melanoma): > 100 µM
TGI (SF-539 CNS): 92.5 µM
TGI (SF-295 CNS): > 100 µM
TGI (HL-60(TB) leukemia): > 100 µM
TGI (NCI-H23 lung): > 100 µM
TGI (SF-268 CNS): > 100 µM
TGI (SNB-75 CNS): 42.2 µM
TGI (HOP-62 NSCLC): > 100 µM
TGI (RXF 393 renal): > 100 µM
TGI (PC-3 prostate): > 100 µM
TGI (OVCAR-8 ovarian): > 100 µM
TGI (HOP-92 NSCLC): > 100 µM
TGI (OVCAR-4 ovarian): > 100 µM
TGI (TK-10 renal): > 100 µM
TGI (A549 NSCLC): > 100 µM
TGI (SW-620 colon): > 100 µM
TGI (M14 melanoma): > 100 µM
TGI (UACC-62 melanoma): > 100 µM
TGI (MDA-N): > 100 µM
TGI (UACC-257 melanoma): > 100 µM
TGI (HCT-116 colon): > 100 µM
TGI (SK-MEL-28 melanoma): > 100 µM
TGI (MCF7 breast): > 100 µM
TGI (SK-OV-3 ovarian): > 100 µM
TGI (NCI-H460 lung): > 100 µM
TGI (MALME-3M melanoma): > 100 µM
TGI (COLO 205 colon): > 100 µM
TGI (SR leukemia): > 100 µM
TGI (UO-31 renal): > 100 µM
TGI (OVCAR-5 ovarian): > 100 µM
TGI (NCI/ADR-RES ovarian): > 100 µM
TGI (SK-MEL-5 melanoma): > 100 µM
TGI (MDA-MB-435): > 100 µM
TGI (IGROV1 ovarian): > 100 µM
TGI (KM12 colon): > 100 µM

CCC(C)c1cnc(CC(C)C)c(=O)[nH]1 (stereo not given)
TGI (CAKI-1 renal): > 100 µM
TGI (HCT-15 colon): > 100 µM
TGI (MOLT-4 leukemia): > 100 µM
TGI (SN12C renal): > 100 µM
TGI (A498 renal): > 100 µM
TGI (HCC-2998 colon): > 100 µM
TGI (BT-549 breast): > 100 µM
TGI (T-47D breast): > 100 µM
TGI (MDA-MB-231 breast): > 100 µM
TGI (SK-MEL-2 melanoma): > 100 µM
TGI (EKVX NSCLC): > 100 µM
TGI (SNB-19 CNS): > 100 µM
TGI (RPMI-8226 leukemia): > 100 µM
TGI (U251 CNS): > 100 µM
TGI (HT29 colon): > 100 µM
TGI (CCRF-CEM leukemia): > 100 µM
TGI (K-562 leukemia): > 100 µM
TGI (OVCAR-3 ovarian): > 100 µM
TGI (786-0 renal): > 100 µM
TGI (ACHN renal): > 100 µM
TGI (DU-145 prostate): > 100 µM
TGI (LOX IMVI melanoma): > 100 µM
TGI (SF-295 CNS): > 100 µM
TGI (NCI-H23 lung): > 100 µM
TGI (SF-268 CNS): > 100 µM
TGI (SNB-75 CNS): > 100 µM
TGI (HOP-62 NSCLC): > 100 µM
TGI (RXF 393 renal): > 100 µM
TGI (PC-3 prostate): > 100 µM
TGI (OVCAR-8 ovarian): > 100 µM
TGI (HOP-92 NSCLC): > 100 µM
TGI (OVCAR-4 ovarian): > 100 µM
TGI (TK-10 renal): > 100 µM
TGI (A549 NSCLC): > 100 µM
TGI (SW-620 colon): > 100 µM
TGI (M14 melanoma): > 100 µM
TGI (UACC-62 melanoma): > 100 µM
TGI (MDA-N): > 100 µM
TGI (UACC-257 melanoma): > 100 µM
TGI (HCT-116 colon): > 100 µM
TGI (SK-MEL-28 melanoma): > 100 µM
TGI (MCF7 breast): > 100 µM
TGI (SK-OV-3 ovarian): > 100 µM
TGI (NCI-H460 lung): > 100 µM
TGI (COLO 205 colon): > 100 µM
TGI (SR leukemia): > 100 µM
TGI (UO-31 renal): > 100 µM
TGI (HS 578T breast): > 100 µM
TGI (OVCAR-5 ovarian): > 100 µM
TGI (SK-MEL-5 melanoma): > 100 µM
TGI (MDA-MB-435): > 100 µM
TGI (IGROV1 ovarian): > 100 µM
TGI (KM12 colon): > 100 µM
